Reference: patent publication US11596692B1 (Incyte Corporation, priority 2018, dated 2023)

How the values were obtained:
PD-1/PD-L1 = PD-1/PD-L1 (Homo sapiens (Human), UniProt Q9NZQ7); experiment: PD-1/PD-L1 binding assay (Alphascreen)
Method: Binding assays were conducted in a low volume white 384-well polystyrene plate in a final volume of 20 μL. Compounds to be analyzed were first serially diluted in DMSO and added to the plate wells before the addition of other reaction components. The final concentration of DMSO in the assay was 1%. The assay was carried out at 25° C. in the PBS buffer (pH 7.4) with 0.05% Tween-20 and 0.1% BSA. Recombinant human PD-L1 protein (19-238) with a His-tag at the C-terminus was purchased from AcroBiosystems (PD1-H5229). Recombinant human PD-1 protein (25-167) with Fc tag at the C-terminus was also from AcroBiosystems (PD1-H5257). PD-L1 and PD-1 proteins were diluted in the assay buffer (final concentration—0.67 and 0.20 nM respectively) and 10 μL was added to the plate well. Plates were centrifuged and proteins were preincubated with compounds for 40 minutes. The incubation was followed by the addition of 10 μL of assay buffer supplemented with Alphascreen Ni chelate donor beads (PerkinElmer—AS101D) and Protein A Acceptor beads (PerkinElmer—6760137) at final concentration 2.5 μg/mL under reduced light. After plate sealing, the plate was incubated in the dark at room temperature for 120 minutes before reading on a PHERAstar FS plate reader (BMG Labtech). IC50 determination was performed by fitting the curve of percent control activity versus the log of the compound concentration using the GraphPad Prism 5.0 software.

PD-L1 [1] = molecular target: T1, PD-L1 (Homo sapiens (Human), UniProt Q9NZQ7); experiment: Indirect whole blood PD-L1 internalization assay; format: cell-based; settings: interferon γ, 18 hours, CD14+ gated
T1 sequence (Q9NZQ7 19-290): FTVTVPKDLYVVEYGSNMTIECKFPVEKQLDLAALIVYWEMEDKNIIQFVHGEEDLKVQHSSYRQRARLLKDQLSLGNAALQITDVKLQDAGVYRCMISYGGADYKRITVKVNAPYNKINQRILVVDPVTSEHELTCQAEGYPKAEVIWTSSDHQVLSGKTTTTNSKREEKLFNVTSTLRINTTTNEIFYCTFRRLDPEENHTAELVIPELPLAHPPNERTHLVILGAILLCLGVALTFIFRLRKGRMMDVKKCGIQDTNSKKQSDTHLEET
Method: To determine PD-L1 internalization in human whole blood, normal human blood (Biological Specialty Corp, Colmar. Pa.) was incubated in the presence or absence of a concentration range of test compounds and 1 ng/ml human interferon γ (R&D Systems Inc. Minn. Minn.) in a 96 well round bottom plate (Corning, Corning, N.Y.) for 18 hours at 37° C. Blood was then transferred into 96 well “2 ml Assay Block” (Corning, Corning N.Y.) and stained with PD-L1 (MIH1, eBioscience; or BD Biosciences San Jose, Calif.), CD14 (Life Technologies, Carlsbad, Calif.) for 30 minutes in the dark at room temperature. Whole Blood/red cells were lysed/fixed (lysis buffer BD Biosciences) for 5 minutes at 37° C. in dark and then centrifuged at 1600 RPM for 5 minutes and cells were transferred into 96 well round bottom plates (Corning). Cells were gated on CD14+ (BD Biosciences) and PD-L1 expression determined by mean fluorescence intensity (MFI) (BD LSRFortessa™ X-20). IC50 determination was performed by fitting the curve of compound percent inhibition versus the log of the compound concentration using the GraphPad Prism 7.0 software.

PD-L1 [2] = molecular target: T1, PD-L1; experiment: Indirect PD-L1 internalization assay using MDA-MB231 cells; format: cell-based; settings: 16 hrs
Method: For the indirect analysis, cell surface PD-L1 was detected with fluorescently labeled anti-PD-L1 (CD274) antibodies. CHO-PD-L1 cells were seeded at 2×10^5 cells per well of a 6-well tissue culture plate in 2 ml of F-12 medium supplemented with 10% FBS, 200 μg/ml Hydromycin and 250 μg/ml Geneticin and allowed to attach for 24 hours. After 24 hours, test compounds were added to a final concentration of 1 uM from DMSO stocks, and an equal volume of DMSO was added to control wells. Cells were incubated in the presence of a compound for 16 hours at 37° C., 5% CO2. Prior to analysis, the cells were washed twice with 1 mL of Ca, Mg free PBS and detached with 1 mL of lift buffer (10 mM Tris, 140 mM NaCl, 1 mM EDTA). The collected cells were stained with PE-conjugated mouse anti-human CD274 antibody according to manufacturer instructions: BD Pharmigen #557924 Clone MIH1 (20 μL of Ab per 100 uL of BSA based staining buffer) or eBioscience #12-5983 Clone MIH1 (2 μL per 100 ul of BSA based staining buffer). Cells were incubated at room temperature for 20 minutes, protected from light, washed twice with Ca, Mg free PBS and resuspended in 400 μL of PBS. Antibody binding was detected by flow cytometry using an Accuri C6 instrument. Isotype control antibody-stained cells were used as a negative control. To test that lack of PD-L1 cell surface staining was not due to inhibition of detection antibody binding by the test article, an acid-wash procedure was used. After 16 hours of incubation in the presence of a compound or anti-PD-L1 antibody, the remaining, non-internalized a compound or antibody was stripped from the cell surface using freshly prepared, ice-cold acid stripping buffer (DMEM/0.2% BSA, pH 3.5). Cells were washed in this manner three times for 5 minutes each on a shaking platform. The stripped cells were then washed with ice-cold PBS three times for 5 minutes each with gentle shaking, harvested with lift buffer and stained with PE-mouse anti human CD274 antibodies as described.
For the indirect method of assessing PD-L1 internalization using the MDA-MB231 breast cancer cell line, the procedure for the assays was the same as described for the CHO-PD-L1 cells with the following changes. MDA-MB231 were seeded at 2×10^5 cells per well of a 6-well tissue culture plate in 2 ml of RPMI1640 medium supplemented with 10% FBS. After compound treatment for 16 hrs, the cells were treated with the stripping buffer (DMEM/0.2% BSA, pH 3.5) prior to staining with the anti-CD274 antibodies as described.

IRF3 = IRF3 activation assay in THP-1 Dual cells; format: cell-based; settings: Homo sapiens, THP-1, Table 4C; read-out: THP1 IRF3 EC50
In short: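 THP-1 Dual cells (100,000/well) were treated with serially diluted compound for 24 h at 37° C, 5% CO2. IRF3 reporter activity in supernatant was read with QUANTI-Blue as absorbance at 620-655 nm after 2 h, with untreated cells as negative control. EC50 came from fitting percent control activity against log concentration.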

[3] = system: IFNβ production in CD11b+ monocytes; experiment: IFN-beta induction in CD11b+ monocytes from healthy donor PBMC; format: cell-based, human; settings: Homo sapiens, CD11b+ monocyte cultures, 20 hours, mean ± SEM
Method: (§1) CD11b^+ cells were isolated from healthy PBMCs as well as Pleural effusion samples using Miltenyi isolation kit according to manufacturer's protocol. Cells were seeded in 96 well plates at the density of 300,000 cells/wells, and then treated with various concentrations of compounds for 20 hours. After 20 hours, IFN-beta secretion levels were evaluated in the culture supernatants by MSD singleplex assay. EC50 values were calculated using Prism software.
(§2) Different naked STING agonisst and PD-L1-targeted small molecule-STING agonist conjugates were added to CD11b^+ monocytes cultures isolated from healthy donor blood or lung cancer patients' pleural effusions. Culture supernatants were collected 20 hours later and IFNβ production were determined using MSD singleplex assay.

[4] = system: IFNβ production in CD11b+ monocytes; experiment: IFN-beta induction in CD11b+ monocytes from lung cancer pleural effusions; format: cell-based, human; settings: Homo sapiens; CD11b+ monocyte cultures, lung cancer pleural effusion, 20 hours; read-out: EC50 for IFNβ induction, Cancer patient
Method: as §1, §2

PD-1/PD-L1, sequence (Q9NZQ7 19-238): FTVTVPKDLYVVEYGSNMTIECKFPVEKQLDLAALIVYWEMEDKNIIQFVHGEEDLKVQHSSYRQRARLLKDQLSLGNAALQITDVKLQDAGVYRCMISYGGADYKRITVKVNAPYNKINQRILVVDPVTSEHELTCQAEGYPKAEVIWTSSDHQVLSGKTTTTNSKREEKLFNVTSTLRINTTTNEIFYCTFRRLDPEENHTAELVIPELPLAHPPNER

Row | IC50 (PD-1/PD-L1) | IC50 (PD-L1 [1]) | IC50 (PD-L1 [2]) | EC50 (IRF3) | EC50 [4] | SMILES | EC50 [3]
1 | 0.1 to 1 nM | < 100 nM | < 10 nM |  |  | Cc1c(Nc2nccc3cc(CN4CC[C@@H](O)C4)cnc23)cccc1-c1cccc(-c2nc3cc(CC4CC[C@@H](C(=O)O)C4)cc(C#N)c3o2)c1C (stereo partly drawn) [Example P14] | 
2 |  |  |  | ≤ 50 nM | 38 nM | CCn1nc(C)cc1C(=O)Nc1nc2cc(C(N)=O)cc(OCCCOC(=O)NCCC(=O)O)c2n1C/C=C/Cn1c2nc(-c3cc(C)nn3CC)ncc2c2cc(C(N)=O)cc(OCCCOC)c21 [Example S48, (E)-3-(((3-((5-carbamoyl-1-(4-(6-carbamoyl-2-(1-ethyl-3-methyl-1H-pyrazol-5-yl)-8-(3-methoxypropoxy)-9H-pyrimido[4,5-b]indol-9-yl)but-2-en-1-yl)-2-(1-ethyl-3-methyl-1H-pyrazole-5-carboxamido)-1H-benzo[d]imidazol-7-yl)oxy)propoxy)carbonyl)amino)propanoic acid] | 64 ± 12 nM
3 | 0.1 to 1 nM | 100 to 1000 nM | 100 to 500 nM |  |  | Cc1c(Nc2nccc3cc(CN4CC[C@@H](O)C4)cnc23)cccc1-c1cccc(-c2nc3c(Cl)cc(CN4CC[C@@H](C(=O)O)C4)cn3n2)c1C [Example P17] | 
4 | 0.1 to 1 nM | 100 to 1000 nM | 10 to 100 nM |  |  | Cc1c(Nc2nccc3cc(CN4CC[C@@H](O)C4)cnc23)cccc1-c1cccc(-c2nc3cc(CNCC(C)(C)C(=O)O)cc(C#N)c3o2)c1C [Example P21] | 
5 |  |  |  | ≤ 50 nM | 56 nM | CCn1nc(C)cc1C(=O)Nc1nc2cc(C(N)=O)cc(OCCCNC(=O)OCC(=O)O)c2n1C/C=C/Cn1c2nc(-c3cc(C)nn3CC)ncc2c2cc(C(N)=O)cc(OCCCOC)c21 [Example S45, (E)-2-(((3-((5-carbamoyl-1-(4-(6-carbamoyl-2-(1-ethyl-3-methyl-1H-pyrazol-5-yl)-8-(3-methoxypropoxy)-9H-pyrimido[4,5-b]indol-9-yl)but-2-en-1-yl)-2-(1-ethyl-3-methyl-1H-pyrazole-5-carboxamido)-1H-benzo[d]imidazol-7-yl)oxy)propyl)carbamoyl)oxy)acetic acid] | 119 ± 22 nM
6 | 0.1 to 1 nM | 100 to 1000 nM | 10 to 100 nM |  |  | Cc1c(Nc2nccc3cc(CN4CC[C@@H](O)C4)cnc23)cccc1-c1cccc(-c2nc3cc(CN4CC(C(=O)O)C4)cc(Cl)c3o2)c1C [Example P24] | 
7 | 0.1 to 1 nM | 100 to 1000 nM | 10 to 100 nM |  |  | Cc1c(-c2nc3cc(CN4CC[C@@](C)(C(=O)O)C4)cc(C#N)c3o2)cccc1-c1cccc(Nc2nccc3cc(CN4CC[C@H](O)C4)cnc23)c1Cl [Example P16] | 
8 | 0.1 to 1 nM | 100 to 1000 nM | 10 to 100 nM |  |  | Cc1c(Nc2nccc3cc(CN4CC[C@H](C(=O)O)C4)cnc23)cccc1-c1nccc(Nc2nccc3cc(CN4CC[C@@H](O)C4)cnc23)c1C [Example P23] | 
9 | 0.1 to 1 nM | 100 to 1000 nM | 10 to 100 nM |  |  | Cc1c(-c2nc3cc(CN4CC[C@@H](C(=O)O)C4)cc(C#N)c3o2)cccc1-c1cccc(-c2nc3c(s2)CNCC3)c1C [Example P12] | 
10 | 0.1 to 1 nM | < 100 nM | < 10 nM |  |  | Cc1c(NC(=O)c2nc3c(n2C)CCN(C[C@@H](C)O)C3)cccc1-c1cccc(NC(=O)c2nc3c(n2C)CCN(C)C3)c1Cl [Example P10] | 
11 | 0.1 to 1 nM | 100 to 1000 nM | 10 to 100 nM |  |  | Cc1c(-c2nc3c(C#N)cc(CN4CC[C@@H](O)C4)cn3n2)cccc1-c1cccc(-c2nc3cc(CN4CC[C@@H](C(=O)O)C4)cc(C#N)c3o2)c1C [Example P26] | 
12 | 0.1 to 1 nM | 1000 to 5000 nM | 10 to 100 nM |  |  | Cc1c(-c2nc3c(Cl)cc(CN4CC[C@@H](O)C4)cn3n2)cccc1-c1cccc(-c2nc3cc(CN4CC[C@@H](C(=O)O)C4)cc(C#N)c3o2)c1C [Example P25] | 
13 | 0.1 to 1 nM | 100 to 1000 nM | > 500 nM |  |  | Cc1c(-c2nc3cc(CN4CC[C@@H](C(=O)O)C4)cc(C#N)c3o2)cccc1-c1cccc(-n2cc3c(n2)CN(C(C)C)CC3)c1Cl [Example P19] | 
14 | 0.1 to 1 nM | < 100 nM | < 10 nM |  |  | Cc1c(NC(=O)c2nc3c(n2C)CCN(C[C@H](C)O)C3)cccc1-c1cccc(NC(=O)c2nc3c(n2C)CCN(C)C3)c1Cl [Example P8] | 
